These results are taken from patent US7335814B2, “Transgenic cells expressing glucosyltransferase nucleic acids” (The University of York, priority 2000, dated 2008).

One test concerns the target T1, recombinant GTase A320 (Arabidopsis thaliana, UniProt Q9LVF0).
T1 construct: made in house; host or cells: E. coli
T1 sequence (Q9LVF0 1-496): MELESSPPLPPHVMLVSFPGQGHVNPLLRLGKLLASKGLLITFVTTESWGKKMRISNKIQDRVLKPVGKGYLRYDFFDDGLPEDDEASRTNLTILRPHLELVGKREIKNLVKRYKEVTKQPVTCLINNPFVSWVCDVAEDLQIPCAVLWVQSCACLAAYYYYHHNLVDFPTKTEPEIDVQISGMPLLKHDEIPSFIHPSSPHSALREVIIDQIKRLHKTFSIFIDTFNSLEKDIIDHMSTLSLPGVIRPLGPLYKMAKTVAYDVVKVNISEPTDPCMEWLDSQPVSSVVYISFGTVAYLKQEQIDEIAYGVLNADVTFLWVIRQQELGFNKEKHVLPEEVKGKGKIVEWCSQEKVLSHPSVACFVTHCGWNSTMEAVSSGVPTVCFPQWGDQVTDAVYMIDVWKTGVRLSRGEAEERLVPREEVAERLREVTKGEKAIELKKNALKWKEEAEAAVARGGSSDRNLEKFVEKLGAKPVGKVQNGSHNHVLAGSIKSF
The test can be described thus: Specific activity of recombinant GTase producing glucose ester against lignin precursors (HPLC). Format: biochemical. Conditions: 5 mM UDPG, 0.2 μg GTase, 200 μl, 20° C., 30 min.

The target of test [1] is T2, recombinant GTase A42 (Arabidopsis thaliana, UniProt O23401).
T2 construct: made in house; host or cells: E. coli
T2 sequence (O23401 1-479): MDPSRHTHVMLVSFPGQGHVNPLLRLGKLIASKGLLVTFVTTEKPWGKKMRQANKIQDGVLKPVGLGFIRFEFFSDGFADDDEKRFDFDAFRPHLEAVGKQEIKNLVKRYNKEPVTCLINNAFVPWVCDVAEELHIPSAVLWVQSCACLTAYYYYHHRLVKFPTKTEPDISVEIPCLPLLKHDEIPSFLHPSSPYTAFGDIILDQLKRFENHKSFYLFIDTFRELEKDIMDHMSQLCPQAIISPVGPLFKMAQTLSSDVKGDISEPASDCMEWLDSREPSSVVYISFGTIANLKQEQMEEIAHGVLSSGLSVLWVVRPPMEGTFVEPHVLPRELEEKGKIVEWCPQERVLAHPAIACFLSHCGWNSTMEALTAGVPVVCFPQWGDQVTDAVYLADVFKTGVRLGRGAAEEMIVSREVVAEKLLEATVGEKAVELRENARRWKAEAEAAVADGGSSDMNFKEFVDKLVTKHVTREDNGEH
The test is described as above. The following applies: 0.5 ml of potential substrates, 5 mM UDPG, 0.2 μg GTase, 200 μl, 20° C., 30 min. Format: biochemical.

In test [2] the target is T2, recombinant GTase A42. The test is described as follows: Kinetic studies (Michaelis-Menten) on recombinant GTase producing glucose esters. Format: biochemical. Conditions: glucose ester formation.
Test [3] addresses T3, recombinant GTase A911 (Arabidopsis thaliana, UniProt O22182).
T3 sequence (O22182 1-456): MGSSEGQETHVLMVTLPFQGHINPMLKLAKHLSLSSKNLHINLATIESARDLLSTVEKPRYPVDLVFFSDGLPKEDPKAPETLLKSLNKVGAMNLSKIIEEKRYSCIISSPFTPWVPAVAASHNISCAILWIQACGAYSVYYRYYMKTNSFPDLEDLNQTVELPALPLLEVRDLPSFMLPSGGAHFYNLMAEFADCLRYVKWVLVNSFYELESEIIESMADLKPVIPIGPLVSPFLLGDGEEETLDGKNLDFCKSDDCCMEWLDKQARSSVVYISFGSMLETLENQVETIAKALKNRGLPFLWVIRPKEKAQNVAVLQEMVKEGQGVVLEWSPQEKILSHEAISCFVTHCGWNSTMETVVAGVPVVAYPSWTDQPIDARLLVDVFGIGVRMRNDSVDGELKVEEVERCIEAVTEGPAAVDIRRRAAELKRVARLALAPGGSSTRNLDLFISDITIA
Described as above. Conditions: glucose ester formation.

The target in test [4] is T3, recombinant GTase A911. The test can be described thus: Specific activity of recombinant GTase producing glucose ester against lignin precursors (HPLC). Format: biochemical. Also on record: made in house; host or cells: E. coli. The following applies: 0.5 ml of potential substrates, 5 mM UDPG, 0.2 μg GTase, 200 μl, 20° C., 30 min.
A further test addresses T4, recombinant GTase A43 (Arabidopsis thaliana, UniProt O23402).
T4 construct: made in house; host or cells: E. coli
The description is as above. Format: biochemical. Conditions: 0.5 ml of potential substrates, 5 mM UDPG, 0.2 μg GTase, 200 μl, 20° C., 30 min.

Another test has as its target T5, recombinant GTase A41 (Arabidopsis thaliana, UniProt Q5XF20).
T5 construct: made in house; host or cells: E. coli
T5 sequence (Q5XF20 7-490): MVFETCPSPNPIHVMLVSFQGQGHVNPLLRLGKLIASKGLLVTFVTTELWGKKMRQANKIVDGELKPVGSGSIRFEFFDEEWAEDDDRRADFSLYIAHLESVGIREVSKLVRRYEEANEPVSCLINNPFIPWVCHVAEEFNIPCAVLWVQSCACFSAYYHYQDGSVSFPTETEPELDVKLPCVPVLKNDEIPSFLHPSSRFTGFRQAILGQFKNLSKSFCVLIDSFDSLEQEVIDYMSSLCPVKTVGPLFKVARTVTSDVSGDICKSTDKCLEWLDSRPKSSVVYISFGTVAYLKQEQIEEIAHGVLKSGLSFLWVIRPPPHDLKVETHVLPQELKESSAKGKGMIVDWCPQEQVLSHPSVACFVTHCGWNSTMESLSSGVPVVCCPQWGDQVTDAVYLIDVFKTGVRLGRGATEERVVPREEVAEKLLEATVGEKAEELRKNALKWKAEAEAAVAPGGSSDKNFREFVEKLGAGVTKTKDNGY
The description is as above. The following applies: 5 mM UDPG, 0.2 μg GTase, 200 μl, 20° C., 30 min. Format: biochemical.

A further test addresses T6, recombinant GTase A062 (Arabidopsis thaliana, UniProt Q9LR44).
T6 construct: made in house; host or cells: E. coli
T6 sequence (Q9LR44 1-469): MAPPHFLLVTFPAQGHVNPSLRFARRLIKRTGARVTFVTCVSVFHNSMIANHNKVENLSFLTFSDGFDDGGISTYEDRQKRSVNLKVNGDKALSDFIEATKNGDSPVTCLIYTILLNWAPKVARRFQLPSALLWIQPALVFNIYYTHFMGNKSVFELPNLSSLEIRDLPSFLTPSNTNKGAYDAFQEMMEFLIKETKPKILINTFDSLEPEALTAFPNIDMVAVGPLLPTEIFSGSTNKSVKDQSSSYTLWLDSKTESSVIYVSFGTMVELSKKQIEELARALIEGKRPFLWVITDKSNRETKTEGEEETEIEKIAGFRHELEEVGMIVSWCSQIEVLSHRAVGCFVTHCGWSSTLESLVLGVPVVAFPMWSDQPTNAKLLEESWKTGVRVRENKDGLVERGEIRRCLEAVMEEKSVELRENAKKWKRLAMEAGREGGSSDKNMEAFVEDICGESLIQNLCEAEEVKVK
Described as above. Format: biochemical. Conditions: 0.5 ml of potential substrates, 5 mM UDPG, 0.2 μg GTase, 200 μl, 20° C., 30 min.

As to `O=C(O)C=Cc1ccccc1` [Cinnamic acid, cinnamic acid], the “Specific activity of A320 (substrate converted to glucose ester)” value at recombinant GTase A320 is 0.06 nkat/mg. In addition, on recombinant GTase A42 [1], the “Specific activity of A42 (substrate converted to glucose ester)” value was 14.21 nkat/mg. Further, the “Vmax (A42)” value on recombinant GTase A42 [2] was determined as 19.42 nkat/mg. Moreover, at recombinant GTase A911 [3], the “Vmax (A911)” value is 9.06 nkat/mg. Also, at recombinant GTase A911 [4], the “Specific activity of A911 (substrate converted to glucose ester)” value was determined as 8.77 nkat/mg. Further, the “Specific activity of A43 (substrate converted to glucose ester)” value at recombinant GTase A43 was found to be 0.02 nkat/mg. Also, the “Specific activity of A41 (substrate converted to glucose ester)” value on recombinant GTase A41 came out at 0.30 nkat/mg. In addition, the “Specific activity of A062 (substrate converted to glucose ester)” value on recombinant GTase A062 is given as 1.62 nkat/mg.
